These are literature values, as cited in patent US20190091195A1, “USE OF DIANHYDROGALACTITOL AND DERIVATIVES THEREOF IN THE TREATMENT OF GLIOBLASTOMA, LUNG CANCER, AND OVARIAN CANCER” (Del Mar Pharmaceuticals, priority 2015, published 2019).

One data set addresses GSK-3β (Homo sapiens, UniProt P49841). Conditions: cited from earlier work.
The conditions of data set [1]: cited from earlier work.

Chain of GSK-3β (P49841 whole entry, species assumed): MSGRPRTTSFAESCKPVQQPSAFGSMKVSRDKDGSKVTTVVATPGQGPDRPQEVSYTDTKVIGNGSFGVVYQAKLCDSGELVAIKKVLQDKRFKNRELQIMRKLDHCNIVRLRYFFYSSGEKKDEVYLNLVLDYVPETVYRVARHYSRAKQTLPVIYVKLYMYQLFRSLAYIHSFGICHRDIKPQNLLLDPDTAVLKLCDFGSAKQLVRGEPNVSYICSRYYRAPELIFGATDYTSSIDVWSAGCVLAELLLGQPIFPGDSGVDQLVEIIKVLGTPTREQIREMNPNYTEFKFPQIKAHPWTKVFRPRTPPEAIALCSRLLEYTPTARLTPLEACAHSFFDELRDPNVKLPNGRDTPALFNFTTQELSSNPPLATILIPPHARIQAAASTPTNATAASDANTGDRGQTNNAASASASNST

Regarding `CN1C(=O)/C(=C2/C(=O)Nc3ccccc32)c2ccccc21` [Meisoindigo], the “concentration for inhibition of GSK-3β” value on GSK-3β was 5 to 50 nM. Turning to `O[C@H]([C@H](O)[C@@H](O)CBr)[C@H](O)CBr` [dibromodulcitol], the “absorption by the oral route” value in data set [1] was “rapid and fairly complete”.
